# US10487045B2, “Adamantane derivative and use thereof” (TOHOKU UNIVERSITY, priority 2016, dated 2019)
# Assays:
# Kir6.2 channel = biological target: T1, Kir6.2 channel (Mus musculus, UniProt Q61743); experiment: Calcium imaging method (Fura2) in Kir6.2 channel-overexpressing cells; format: cell-based
# T1 construct: expressed in transfected cells; host or cells: Neuro2A (N2A) cells, transient transfection with pcDNA3.1-Kir6.2 (gift of Dr. Toru Ishizuka, Tohoku University)
# T1 sequence (Q61743 1-390): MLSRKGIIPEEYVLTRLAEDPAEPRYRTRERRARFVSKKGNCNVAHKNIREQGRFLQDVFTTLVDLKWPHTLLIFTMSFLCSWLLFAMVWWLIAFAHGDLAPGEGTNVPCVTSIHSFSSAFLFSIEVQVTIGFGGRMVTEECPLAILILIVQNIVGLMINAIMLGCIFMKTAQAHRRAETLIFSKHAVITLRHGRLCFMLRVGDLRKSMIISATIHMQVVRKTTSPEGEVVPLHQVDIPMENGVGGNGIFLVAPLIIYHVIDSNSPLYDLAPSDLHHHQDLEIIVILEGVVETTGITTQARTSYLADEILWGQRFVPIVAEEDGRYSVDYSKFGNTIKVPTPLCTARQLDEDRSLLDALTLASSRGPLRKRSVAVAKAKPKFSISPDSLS
# Procedure: Using the same Kir6.2 channel-overexpressing cells as in Test Example 1, the amount of calcium that flows into cells from outside the cells by TP-014 treatment was measured by a calcium imaging method. The calcium imaging method is a method of measuring the amount of calcium based on the intensity of fluorescence of cultured nerve cells, which are treated in a culture solution containing a calcium fluorescent dye (Fura2, manufactured by Dojindo Laboratories) in a concentration of 4 μM. Imaging was carried out by an imaging apparatus (LAMBDA10-2, manufactured by SUTTER INSTRUMENT) in accordance with the manual attached to the apparatus.
# APP23 mice [1] = experiment: New object recognition test in Alzheimer's disease model mice; format: in vivo; details: APP23 mice 12 month-old, administered for two months
# Procedure: The new object recognition test method is carried out as follows. Two identical shape building blocks are placed in a mouse cage and mice are allowed to play for 10 minutes (this is referred to as a training trial). One hour later, one of the building blocks was replaced with a different-shaped building block. Since normal mice show interest on a new object, they play a longer time with the different-shaped building block. The Alzheimer's disease (model) mice, since the mice fail to recognize the new object (building block), are seemed to have memory disturbance. Mice are allowed to freely play for further 5 minutes with two building blocks different in shape (this is referred to as retention trial). In the training trial and retention trial, the number of times a mouse is in contact with each of the two objects was counted. The ratio (%) of the number of contact times to the different-shaped building block to the total number of contact times in the retention trial was calculated and used as a discrimination index.
# APP23 mice [2] = experiment: Fear conditioning test in Alzheimer's disease model mice; format: in vivo; details: APP23 mice treated for two months
# Excerpt: The fear conditioning test method is an analysis taking an advantage of mouse's preposition in favor of a dark place rather than a bright place. Day 1, a mouse is placed in a bright place. Since a mouse is fond of a dark place, the mouse enters a dark place (dark box). When an electrical stimulation is given to the mouse at this time, the mouse is surprised and returns to the bright place and never enters the dark place. Day 2, the mouse is placed in the bright place (the same place as on Day 1), and then, whether the mouse enters a dark place or not is observed for 5 minutes. If the mouse enters the dark place right away, it is determined that fear memory of the mouse declined. “Latency” is a time period (seconds) until the mouse placed in a bright place enters the dark plate (darkroom) on Day 2.
# APP23 mice [3] = experiment: Aβ aggregation in brain slices, staining with 6E10 and thioflavin; format: in vivo; details: APP23 mice (14 months old), chronic treatment, brain slice sections
# Excerpt: The hypothesis that amyloid-β (Aβ) is a cause of Alzheimer's disease has now still important. AP aggregation, which occurs in APP23 mice (14 months old) was confirmed by immunostaining. The brains of a WT (control mouse) and APP23 mouse were cut into slice sections of 50 micrometers in thickness. The slice sections were stained with 6E10 (Aβ antibody, manufactured by Abeam) and thioflavin. The conditions other than the above were the same as in the ordinary immunostaining method. […] In contrast, aggregation was not virtually observed in the hippocampus (CA1). Aβ aggregation was inhibited by TP-014 chronic treatment.
# OBX mice = experiment: Depression-like symptom: tail-suspension method and forced swim method in OBX mice; format: in vivo; details: chronic administration 2 weeks
# Procedure: (§1) OBX mice were originally established as depression model mice although a deterioration of cognitive function was observed. Depression was analyzed by a tail-suspension method (a) and a forced swim method (b). The tail-suspension method is a method of pinching the tail of a mouse and hanging the mouse upside down. If the mouse hung has depression, immobility time is long. Since a normal mouse moves even if it is hung, the immobility time is short. In the forced swim method, a mouse is forced to swim in water in a beaker. A mouse having depression neither swims nor moves (just floating). Thus the immobility time is measured. Immobility time was long in OBX mice both in the tail-suspension method (a) and the forced swim method (b). The immobility time of a TP-014 chronic administration group (2 weeks, in the same administration method as that previously mentioned) was improved.
# Kir6.1 defective mice = experiment: Tail-suspension and forced swim methods in Kir6.1 defective mice (hetero-type); format: in vivo; details: chronic treatment
# Procedure: as §1
# Immobility time of Kir6.1 defective mice (hetero-type, n=5 per group) was measured by the tail-suspension method (a) and the forced swim method (b) in the same manner as in FIGS. 11a and 11b. The hetero-type mice are the mice in which the expression level of Kir6.1 channel is half (the homo type mice develops arrhythmia after birth and dies) in contrast to the homo type mice (complete defective mice). […] The chronic treatment with TP-014 was not effective. […]
compound,measurement,setting,value
"O=C(N[C@@H](c1ccccc1)[C@H]1[C@H]2C[C@@H]3C[C@](Cl)(C2)C[C@@]1(OC(=O)C(F)(F)F)C3)C(F)(F)F [TP-014, (1S,2R,3S,5S,7S)-5-chloro-2-((R)-phenyl(2,2,2-trifluoroacetamido)methyl)adamantan-1-yl 2,2,2-trifluoroacetate]",calcium concentration increasing effect compared with memantine,Kir6.2 channel; TP-014 1-100 nM vs memantine 100 nM,larger calcium concentration increasing effect than memantine
same,amount of calcium within cells,"Kir6.2 channel; TP-014 1-100 nM, 4 minutes after treatment, Kir6.2 channel-overexpressing cells",significantly increased
same,"cognitive function, new object recognition test (discrimination index)",APP23 mice [1],effectively improved
same,"fear memory (latency, fear conditioning test)",APP23 mice [2],improvement effect
same,Aβ aggregation,APP23 mice [3],inhibited
same,immobility time (tail-suspension method and forced swim method),OBX mice,improved
same,"depression-like symptom, immobility time in Kir6.1 defective mice",Kir6.1 defective mice,not effective
